Data on 2 compounds can be found in patent US20030104490A1, “Assay” (priority 2000, published 2003).

Assay [1] relates to CHO-T cells expressing an IRAP-GFP construct. Put plainly: Insulin-induced translocation of IRAP-GFP (GLUT4 vesicles) to the plasma membrane, immunofluorescence, surface:total IRAP-GFP ratio. It is filed as cell-based. As to conditions: unpermeabilised, anti-GFP staining vs GFP fluorescence, 200 nM insulin for 30 min, inhibitor (wortmannin) treatment preceding stimulation, 20 fields of view. An excerpt: The IRAP-GFP construct used in this example was constructed using an IRAP fragment 66-533 (from the start site to the end of the extracellular ‘stalk’ region) which was generated by PCR using specific primers from a partial cDNA IRAP clone available to the inventors. The resulting fragment was cloned into the pcDNA3 vector using the flanking restriction enzyme sites. GFP3 with a C-terminal myc-tag was also generated by PCR using specific primers and the product cloned into pcDNA3 downstream of the IRAP insert.
CHO-T cells were transfected or microinjected with the IRAP-GFP construct and 24 h later were stimulated without or with 200 nM insulin for 30 min. This was preceded by treatment with an inhibitor (e.g. wortmannin) of insulin signalling.
Subsequently cells were fixed and stained with anti-GFP antibodies (Roche) without prior permeabilisation, as described below, in order to visualise GFP exposed on the surface of the plasma membrane only. […]
The total IRAP-GFP expression level is given by the level of GFP fluorescence (and this corresponds to the second detection method of the first aspect of the invention). […]
Fluorescence intensity due to IRAP-GFP fluorescence and surface IRAP-GFP immunostaining was then computed from cells imaged in 20 fields of view for each treatment condition. Results are expressed as an average ratio of surface:total IRAP-GFP.

For assay [2], the system named is 3T3-L1 adipocytes microinjected with the IRAP-GFP construct. Put plainly: Insulin-induced translocation of GLUT4-containing vesicles (IRAP-GFP) to the plasma membrane in 3T3-L1 adipocytes, confocal microscopy. It is filed as cell-based. The note with it: serum-starved 2 hours, 100 nM insulin for 30 minutes. How it is done: 3T3-L1 fibroblasts (between passages 4 and 12) were seeded onto 22 mm glass coverslips and allowed to grow to confluence. Differentiation into adipocytes was induced in DMEM containing 10% (v/v) myoclone-plus FCS, 0.25 μM dexamethasone, 0.5 mM isobutylmethylxanthine and 166 nM insulin for 2 days (day 0 to day 2). This medium was replaced with DMEM containing 10% (v/v) myoclone-plus FCS and 166 nM insulin for a further 2 days (day 2 to day 4). From day 4 onwards cells were maintained in DMEM containing 10% (v/v) myoclone-plus FCS, replacing the medium every two days. 3T3-L1 adipocytes were used between day 7 and day 10 after initiation of differentiation.
Differentiated 3T3-L1 adipocytes were microinjected with the IRAP-GFP construct used in Example 1 (pcDNA3). […]
The total level of the IRAP-GFP expression is indicated by the level of GFP fluorescence detected (this corresponds to the second detection method of the first aspect of the invention). […] The fluorescence intensity due to IRAP-GFP fluorescence and surface IRAP-GFP immunostaining was computed for each individual cell, using Leica Confocal Software, and a background fluorescence figure subtracted. For each cell, the ratio of background corrected surface:total IRAP-GFP was calculated. […] Each data point represents the red:green fluorescence ratio for one cell.

In the case of `COC[C@H]1OC(=O)c2coc3c2[C@@]1(C)C1=C(C3=O)[C@@H]2CCC(=O)[C@@]2(C)C[C@H]1OC(C)=O` [Wortmannin, wortmannin, reference compound], the “MEAN R/G (average ratio of surface:total IRAP-GFP)” value in assay [1] was found to be 0.363.

As for insulin, in assay [1], the “MEAN R/G (average ratio of surface:total IRAP-GFP)” value amounted to 1.252. In addition, the “translocation of IRAP-GFP to the plasma membrane (red:green ratio surface:total IRAP-GFP per cell, FIG. 4)” value in assay [2] is listed as “a significant proportion of cell undergo translocation”.
